# Data published in patent US20140322076A1, “ANTIMICROBIAL COMPOSITION” (priority 2011, published 2014).
# Key:
# [1] = tested on: Escherichia coli (10536 strain); experiment: Antimicrobial efficacy, 15 seconds contact suspension assay (Examples 1 and 3); assay type: cell-based; conditions: contact time 15 seconds; for NMBS (mean bacterial survival): phenol and terpineol concentration (% w/v) as given per example, 0 = complete kill, triplicate; for NMBS: Example 3, gamma-terpineol, concentrations (% w/v) as given per example
# Description: The efficacies of antimicrobial agents can be usefully compared by determining the Minimum Biocidal Concentration (MBC). The MBC is defined as the lowest absolute concentration of the particular active that provides complete kill (zero bacterial growth).
# ΣFBC=FBC(component 1)+FBC(component 2)+FBC(component 3)+ . . . etc
# such that • ΣFBC≧1 corresponds to additive or antagonistic bactericidal activity • ΣFBC<1 corresponds to synergistic bactericidal activity
# Antimicrobial efficacy is tested against a representative pathogenic bacterial organism, Gram negative Escherichia coli. Concentrations of actives are expressed in terms of the percentage weight/volume (% w/v) throughout Example 1.
# An overnight culture of Escherichia coli (10536 strain) was prepared in 50 ml total volume of TSB broth, grown for ca. 18 hrs at 37° C. and shaken at 150 rpm. 1 ml of this overnight E. coli culture was transferred to 50 ml of fresh TSB broth and incubated at 37° C. at 150 rpm for ca. 4 hours. This culture was separated into equal volumes and centrifuged at 4000 rpm for 15 minutes, washed with sterile saline (0.85% NaCl), centrifuged once more and re-suspended in saline to give a final concentration of 0.8 OD620 equivalent to about 10^8 cells per millilitre for this particular organism. Here, OD620 indicates the absorbance of a sample in a cuvette of 1.0 cm path length at a wavelength of 620 nm. This bacterial stock was used for assaying against antimicrobial actives (in triplicate).
# The following assay describes the testing of 8 materials using 6 dilutions across half of a 96-well micro titre plate (MTP). Using this approach it is possible to assay 16 actives (without replicates) with one full dilution plate, replicating this set up in two halves of the plate columns, 1-6 and 7-12.
# 1M solutions of the test actives were prepared in dimethylsulphoxide (DMSO).
# Aliquots (270 μl) of the materials at 1.11 times the final concentration were dispensed into the wells of the MTP along one column (A1-H1). This MTP was labelled as the “Screening plate”.
# In another MTP, labelled as the “Dilution plate”, 270 μl of D/E neutralising solution from DIFCO Composition was added to column 1. The composition of the neutralising solution was as follows: pancreatic digest of casein, 5.0 g/L; Yeast Extract, 2.5 g/L; Dextrose, 10 g/L, sodium thioglycollate, 1.0 g/L, sodium thiosulphate, 6.0 g/L; sodium bisulphite, 2.5 g/L; Polysorbate 80, 5.0 g/L; lecithin 7.0 g/L; bromocresol purple, 0.02 g/L with a pH in the range 7.6±0.2.
# 270 μl of tryptone diluent solution was added to all the remaining wells of the Dilution MTP (columns 2-6).
# Bacterial stock (30 μl) was then added to the prepared 270 μl of the solution of actives in the Screening Plate and mixed, using a multichannel pipette with 8 tips to aspirate and dispense the same volume of bacterial stock in parallel to 8 wells in rows A-H. After a contact time of 15 seconds, the mixtures were quenched by transferring 30 μl volumes of the mixtures into the 270 μl D/E neutralising solution in the prepared dilution plate, using aspiration to mix. After exactly 5 minutes in the D/E neutralising solution, 30 μl volumes were transferred from column 1 to column 2 of the Dilution MTP and mixed, before transferring further 30 μl volumes from column 2 into column 3. This process was repeated serially diluting the bacteria across the plate to column 6.
# 30 μl volumes from each well in the Dilution MTP were transferred onto pre-labelled segment of Tryptone Soya Agar (TSA) plates starting from the lowest bacterial concentration (highest dilution, column 6) to the highest bacterial concentration (column 1). The TSA plates were allowed to stand for ca. 2 hours so that the 30 μl inocula spots could dry and the plates were then inverted and incubated overnight at 37° C. before enumerating the bacterial colonies at the labelled dilutions to determine the effects of the actives on bacterial growth.
# [2] = tested on: Escherichia coli (E. coli - ATCC #10536); experiment: Automated assessment of efficacy in surfactant base (Example 4); assay type: cell-based; conditions: 15 seconds exposure; for DeltaOD (450 nm) Mean: OD450 (16 hours) − OD450 (time zero), 2.85% sodium cocoyl glycinate + 1.85% sodium lauroamphoacetate; for DeltaOD (450 nm) Mean / DeltaOD (590 nm) Mean: pH 10; for DeltaOD (590 nm) Mean: OD590 (16 hours) − OD590 (time zero), same surfactant solution; for Nrep = No. of replicates showing growth (out of 4): surfactant solution pH 10
# Description: In these examples, the efficacy of combinations of isopropylmethylphenols and terpineol were tested in a surfactant cleansing formulation comprising 2.85% sodium cocoyl glycinate and 1.85% sodium lauroamphoacetate. This corresponds to a 50% in use dilution with water of a typical neat formulation containing 5.7% cocoyl glycinate and 3.7% % sodium lauroamphoacetate during hand washing. Solutions were prepared such that the concentrations of the surfactant components and test actives were 1.1 times the final desired concentration in order to allow for dilution with the bacterial inoculum in the test. The solutions were manually adjusted to pH 10.0 by dropwise addition of sodium hydroxide solution, as measured with a pH meter at ambient temperature. Solutions of the isopropylmethylphenols and/or terpineols were prepared at a maximum of 24 hours before testing. The same terpineol was used as in Example 1.
# The efficacy of the combinations of the present invention was determined against the same bacterium as in Example 1, Escherichia coli (E. coli—ATCC #10536), at a concentration of approximately 1×10^8 bacteria per mL.
# Tests were conducted using standard microtiter plate assays using an automated liquid handling system. 270 μl of the surfactant test solution was pipetted into each well of the microtitre plate (Nunc F Gamma Irradiated 96F untreated microtitre plates of clear polystyrene) and 30 μl of the bacterial suspension was then added. After exactly 15 seconds of bacterial exposure, a 30 μl volume of bacterial cells was withdrawn and transferred to 270 μl of D/E quench solution. After 5 minutes in the D/E quench, the optical density (OD) was measured for each plate in turn at two specific wavelengths (450 nm and 590 nm). These provide a dual check of antimicrobial activity, as the OD450 reading is specific for the yellow colour of D/E quench when bacterial growth is observed, whereas OD590 is specific for the initial purple colour of the D/E quench which is retained if no bacterial growth is observed. After the time zero OD measurements, plates were then incubated at 37° C. overnight (16 hours) before repeating the OD measurements. Delta OD values were calculated by subtracting […] at time=16 hours.
# Bacterial growth is observed as an increase in OD450 and a decrease in OD590. To identify antibacterially efficacious systems (those preventing appreciable bacterial growth after incubation), the following threshold changes in OD readings have been adopted: if (1). OD450 increases by less than 0.2 absorbance unit (AU) on incubation and (2). OD590 decreases by less than 0.35 AU on incubation. Conversely, where OD450 increases by more than 0.1 AU and OD590 decreases by more than 0.1 AU after incubation, corresponding to a colour shift from purple to yellow, the test system allows bacterial growth and is not deemed efficacious. Four replicate measurements in the same plate have been made for each test system. The number of replicate wells showing either bacterial growth or no growth is also readily assessed by eye by following the colour change. Thymol and terpineol were tested both alone and in combination for comparison purposes.
# In each case, binary mixtures were assessed in the weight to weight ratio isopropylmethylphenol to alpha terpineol of 1:2.5.
Compound,NMBS (mean bacterial survival) [1],NMBS [1],DeltaOD (450 nm) Mean [2],DeltaOD (590 nm) Mean [2],Nrep = No. of replicates showing growth (out of 4) [2]
"Cc1ccc(C(C)C)c(O)c1 [1:1, thymol]",0 log CFU/ml,,,,
"Cc1ccc(C(C)C)c(O)c1 [1:2, thymol]",0 log CFU/ml,,,,
"Cc1ccc(C(C)C)c(O)c1 [1:3, thymol]",>7 log CFU/ml,,,,
"CC1=CCC(O)(C(C)C)CC1 (centres unmarked) [1:4, terpineol]",0 log CFU/ml,,,,
"CC1=CCC(O)(C(C)C)CC1 (centres unmarked) [1:5, terpineol]",0 log CFU/ml,,,,
"CC1=CCC(O)(C(C)C)CC1 (centres unmarked) [1:6, terpineol]",7 log CFU/ml,,,,
"CC1=CCC(O)(C(C)C)CC1 (centres unmarked) [1:7, terpineol]",7 log CFU/ml,,,,
"Cc1cc(O)cc(C(C)C)c1 [1:8, 3-isopropyl-5-methylphenol]",0 log CFU/ml,,,,
"Cc1cc(O)cc(C(C)C)c1 [1:9, 3-isopropyl-5-methylphenol]",7.6 log CFU/ml,,,,
"Cc1cc(O)ccc1C(C)C [1:12, 4-isopropyl-3-methylphenol]",0 log CFU/ml,,,,
"Cc1cc(O)ccc1C(C)C [1:13, 4-isopropyl-3-methylphenol]",7.6 log CFU/ml,,,,
"CC(C)=C1CCC(C)(O)CC1 (centres unmarked) [3:1, gamma-terpineol]",,0 log CFU/ml,,,
"CC(C)=C1CCC(C)(O)CC1 (centres unmarked) [3:2, gamma-terpineol]",,0 log CFU/ml,,,
"CC(C)=C1CCC(C)(O)CC1 (centres unmarked) [3:3, gamma-terpineol]",,0 log CFU/ml,,,
"Cc1ccc(C(C)C)c(O)c1 [4:2, thymol]",,,−0.54,0.64,4
"Cc1ccc(C(C)C)c(O)c1 [4:3, thymol]",,,−0.54,0.56,4
"Cc1ccc(C(C)C)c(O)c1 [4:4, thymol]",,,−0.57,0.55,4
"Cc1ccc(C(C)C)c(O)c1 [4:5, thymol]",,,−0.58,0.55,4

Compound,NMBS (mean bacterial survival) [1],NMBS [1],DeltaOD (450 nm) Mean [2],DeltaOD (590 nm) Mean [2],Nrep = No. of replicates showing growth (out of 4) [2]
"Cc1ccc(C(C)C)c(O)c1 [4:6, thymol]",,,−0.58,0.54,4
"Cc1ccc(C(C)C)c(O)c1 [4:7, thymol]",,,−0.59,0.54,4
"Cc1ccc(C(C)C)c(O)c1 [4:8, thymol]",,,−0.58,0.55,4
"Cc1ccc(C(C)C)c(O)c1 [4:9, thymol]",,,−0.55,0.65,4
"CC1=CCC(O)(C(C)C)CC1 (centres unmarked) [4:10, terpineol]",,,−0.45,0.64,4
"CC1=CCC(O)(C(C)C)CC1 (centres unmarked) [4:11, terpineol]",,,−0.47,0.59,4
"CC1=CCC(O)(C(C)C)CC1 (centres unmarked) [4:12, terpineol]",,,−0.48,0.58,4
"CC1=CCC(O)(C(C)C)CC1 (centres unmarked) [4:13, terpineol]",,,−0.51,0.57,4
"CC1=CCC(O)(C(C)C)CC1 (centres unmarked) [4:14, terpineol]",,,−0.54,0.56,4
"CC1=CCC(O)(C(C)C)CC1 (centres unmarked) [4:15, terpineol]",,,−0.56,0.55,4
"CC1=CCC(O)(C(C)C)CC1 (centres unmarked) [4:16, terpineol]",,,−0.57,0.55,4
"CC1=CCC(O)(C(C)C)CC1 (centres unmarked) [4:17, terpineol]",,,−0.53,0.67,4
"Cc1cc(O)cc(C(C)C)c1 [4:18, 3-isopropyl-5-methylphenol]",,,−0.54,0.63,4
"Cc1cc(O)cc(C(C)C)c1 [4:19, 3-isopropyl-5-methylphenol]",,,−0.53,0.58,4
"Cc1cc(O)cc(C(C)C)c1 [4:20, 3-isopropyl-5-methylphenol]",,,−0.56,0.57,4
"Cc1cc(O)cc(C(C)C)c1 [4:21, 3-isopropyl-5-methylphenol]",,,−0.57,0.56,4
"Cc1cc(O)ccc1C(C)C [4:26, 4-isopropyl-3-methylphenol]",,,−0.46,0.67,4
"Cc1cc(O)ccc1C(C)C [4:27, 4-isopropyl-3-methylphenol]",,,−0.48,0.58,4
